Data: paper PMC9917560, “Design, Synthesis and Antimicrobial Evaluation of New N-(1-Hydroxy-1,3-dihydrobenzo[c][1,2]oxaborol-6-yl)(hetero)aryl-2-carboxamides as Potential Inhibitors of Mycobacterial Leucyl-tRNA Synthetase” (International Journal of Molecular Sciences, 2023)
Converted amounts (≈) assume the structure as drawn. Like-named read-outs stand apart in the source and are kept apart here.

Columns and labels:
[1] = system: Mycobacterium tuberculosis H37Ra ITM-M006710 (ATCC 9431); assay: Antimycobacterial microdilution (resazurin) vs Mtb H37Ra; format: cell-based; details: Middlebrook 7H9, resazurin, recalculated from µg/mL, read-out: MIC Mtb H37Ra
[2] = system: Mycobacterium tuberculosis H37Rv CNCTC My 331/88 (ATCC 27294); assay: Microplate Alamar Blue assay vs Mtb H37Rv; format: cell-based; details: Mycobacterium tuberculosis, pH 6.6, MABA, Middlebrook 7H9 pH 6.6, recalculated from µg/mL; read-out: MIC Mtb H37Rv
[3] = system: Mycobacterium kansasii DSM 44,162 (ATCC 12478); assay: Antimycobacterial microdilution (resazurin) vs M. kansasii; format: cell-based; details: read-out: MIC M. kansasii
[4] = system: Mycobacterium avium DSM 44,156 (ATCC 25291); assay: Antimycobacterial microdilution (resazurin) vs M. avium; format: cell-based; details: Mycobacterium avium, Middlebrook 7H9, resazurin; read-out: MIC M. avium
[5] = system: Mycolicibacterium aurum DSM 43,999 (ATCC 23366); assay: Antimycobacterial microdilution (resazurin) vs M. aurum; format: cell-based; details: Middlebrook 7H9, resazurin, read-out: MIC M. aurum
[6] = system: Mycolicibacterium smegmatis DSM 43,465 (ATCC 607); assay: Antimycobacterial microdilution (resazurin) vs M. smegmatis; format: cell-based; details: Middlebrook 7H9, resazurin, read-out: MIC M. smeg.
[7] = system: Staphylococcus aureus subsp. aureus CCM 4223 (ATCC 29213); assay: Antibacterial microdilution broth (EUCAST); format: cell-based; details: read-out: MIC Staphylococcus aureus subsp. aureus
[8] = system: methicillin-resistant Staphylococcus aureus subsp. aureus (MRSA) CCM 4750 (ATCC 43300); assay: microbe, parasite or virus in culture; format: cell-based; details: read-out: MIC Methicillin-resistant Staphylococcus aureus subsp. aureus
[9] = system: Staphylococcus epidermidis CCM 4418 (ATCC 12228); assay: Antibacterial microdilution broth (EUCAST); format: cell-based; details: read-out: MIC Staphylococcus epidermidis
[10] = system: Enterococcus faecalis CCM 4224 (ATCC 29212); assay: Antibacterial microdilution broth (EUCAST); format: cell-based; details: read-out: MIC Enterococcus faecalis
[11] = system: Escherichia coli CCM 3954 (ATCC 25922); assay: Antibacterial microdilution broth (EUCAST); format: cell-based; details: Escherichia coli, read-out: MIC Escherichia coli
[12] = system: Klebsiella pneumoniae CCM 4415 (ATCC 10031); assay: Antibacterial microdilution broth (EUCAST); format: cell-based; details: Klebsiella pneumoniae, read-out: MIC Klebsiella pneumoniae
[13] = system: Acinetobacter baumannii DSM 30007 (ATCC 19606); assay: Antibacterial microdilution broth (EUCAST); format: cell-based; details: read-out: MIC Acinetobacter baumannii
[14] = system: Pseudomonas aeruginosa CCM 3955 (ATCC 27853); assay: Antibacterial microdilution broth (EUCAST); format: cell-based; details: read-out: MIC Pseudomonas aeruginosa
[15] = system: Candida albicans CCM 8320 (ATCC 24433); assay: Antifungal microdilution broth (EUCAST); format: cell-based; details: Candida albicans, read-out: MIC Candida albicans
[16] = system: Candida krusei CCM 8271 (ATCC 6258); assay: Antifungal microdilution broth (EUCAST); format: cell-based; details: Pichia kudriavzevii, read-out: MIC Candida krusei
[17] = system: Candida parapsilosis CCM 8260 (ATCC 22019); assay: Antifungal microdilution broth (EUCAST); format: cell-based; details: Lodderomyces parapsilosis, read-out: MIC Candida parapsilosis
[18] = system: Candida tropicalis CCM 8264 (ATCC 750); assay: Antifungal microdilution broth (EUCAST); format: cell-based; details: read-out: MIC Candida tropicalis
[19] = system: Aspergillus fumigatus ATCC 204305; assay: Antifungal microdilution broth (EUCAST); format: cell-based; details: Aspergillus fumigatus, read-out: MIC Aspergillus fumigatus
[20] = system: Aspergillus flavus CCM 8363; assay: Antifungal microdilution broth (EUCAST); format: cell-based; details: Aspergillus flavus, read-out: MIC Aspergillus flavus
[21] = system: Lichtheimia corymbifera CCM 8077; assay: Antifungal microdilution broth (EUCAST); format: cell-based; details: Lichtheimia corymbifera, read-out: MIC Lichtheimia corymbifera
[22] = system: Trichophyton interdigitale CCM 8377 (ATCC 9533); assay: Antifungal microdilution broth (EUCAST); format: cell-based; details: Trichophyton interdigitale, read-out: MIC Trichophyton interdigitale
HepG2 cell line = assay: Cytotoxicity screening, CellTiter 96 assay; details: for IC50: Homo sapiens, HepG2, 24 h, read-out: IC50 HepG2

## O=C(Nc1ccc2c(c1)B(O)OC2)c1cnc(O)cn1 [Compound 9, 5-hydroxy-N-(1-hydroxy-1,3-dihydrobenzo[c][1,2]oxaborol-6-yl)pyrazine-2-carboxamide]
[1]
  MIC: 115 µM (≈ 31.3 µg/mL)
[2]
  MIC: 184 µM (≈ 50 µg/mL)
[3]
  MIC: 115 µM (≈ 31.3 µg/mL)
[4]
  MIC: 231 µM (≈ 62.5 µg/mL)
[5]
  MIC: 231 µM (≈ 62.5 µg/mL)
[6]
  MIC: 57.6 µM (≈ 15.6 µg/mL)
[7]; 24h incubation
  MIC: > 500 µM
[7]; 48h incubation
  MIC: > 500 µM
[8]; 24 h
  MIC: > 500 µM
[8]; 48 h
  MIC: > 500 µM
[9]; 24h incubation
  MIC: > 500 µM
[9]; 48h incubation
  MIC: > 500 µM
[10]; 24h incubation
  MIC: > 500 µM
[10]; 48h incubation
  MIC: > 500 µM
[11]; 24h incubation
  MIC: > 500 µM
[11]; 48h incubation
  MIC: > 500 µM
[12]; 24h incubation
  MIC: > 500 µM
[12]; 48h incubation
  MIC: > 500 µM
[13]; 24h incubation
  MIC: > 500 µM
[13]; 48h incubation
  MIC: > 500 µM
[14]; 24h incubation
  MIC: > 500 µM
[14]; 48h incubation
  MIC: > 500 µM
[15]; 24h incubation
  MIC: > 500 µM
[15]; 48h incubation
  MIC: > 500 µM
[16]; 24h incubation
  MIC: > 500 µM
[16]; 48h incubation
  MIC: > 500 µM
[17]; 24h incubation
  MIC: > 500 µM
[17]; 48h incubation
  MIC: > 500 µM
[18]; 24h incubation
  MIC: > 500 µM
[18]; 48h incubation
  MIC: > 500 µM
[19]; ATCC204305, 24h incubation
  MIC: > 500 µM
[19]; ATCC204305, 48h incubation
  MIC: > 500 µM
[20]; CCM8363, 24h incubation
  MIC: > 500 µM
[20]; CCM8363, 48h incubation
  MIC: > 500 µM
[21]; CCM8077, 24h incubation
  MIC: > 500 µM
[21]; CCM8077, 48h incubation
  MIC: > 500 µM
[22]; 72h incubation
  MIC: > 500 µM
[22]; 120h incubation
  MIC: > 500 µM
other
  melting point: 338.3 to 340.1 °C
HepG2 cell line
  IC50: > 1000 µM

## O=C(Nc1ccc2c(c1)B(O)OC2)c1ccc(C(F)(F)F)cn1 [Compound 11, N-(1-hydroxy-1,3-dihydrobenzo[c][1,2]oxaborol-6-yl)-5-(trifluoromethyl)picolinamide]
[1]
  MIC: 97 µM (≈ 31.2 µg/mL)
[2]
  MIC: 9.72 µM (≈ 3.13 µg/mL)
[3]; Middlebrook 7H9, resazurin
  MIC: 12.1 µM (≈ 3.91 µg/mL)
[4]
  MIC: 97 µM (≈ 31.2 µg/mL)
[5]
  MIC: 24.2 µM (≈ 7.81 µg/mL)
[6]
  MIC: 24.2 µM (≈ 7.81 µg/mL)
[7]; 24 h
  MIC: > 125 µM
[7]; 48 h
  MIC: > 125 µM
[8]; 24 h
  MIC: > 125 µM
[8]; 48 h
  MIC: > 125 µM
[9]; 24 h
  MIC: > 125 µM
[9]; 48 h
  MIC: > 125 µM
[10]; 24 h
  MIC: > 125 µM
[10]; 48 h
  MIC: > 125 µM
[11]; 24 h
  MIC: > 125 µM
[11]; 48 h
  MIC: > 125 µM
[12]; 24 h
  MIC: > 125 µM
[12]; 48 h
  MIC: > 125 µM
[13]; 24 h
  MIC: > 125 µM
[13]; 48 h
  MIC: > 125 µM
[14]; 24 h
  MIC: > 125 µM
[14]; 48 h
  MIC: > 125 µM
[15]; 24 h
  MIC: > 125 µM
[15]; 48 h
  MIC: > 125 µM
[16]; 24 h
  MIC: > 125 µM
[16]; 48 h
  MIC: > 125 µM
[17]; 24 h
  MIC: > 125 µM
[17]; 48 h
  MIC: > 125 µM
[18]; 24 h
  MIC: > 125 µM
[18]; 48 h
  MIC: > 125 µM
[19]; ATCC204305, 24 h
  MIC: > 125 µM
[19]; ATCC204305, 48 h
  MIC: > 125 µM
[20]; CCM8363, 24 h
  MIC: > 125 µM
[20]; CCM8363, 48 h
  MIC: > 125 µM
[21]; CCM8077, 24 h
  MIC: > 125 µM
[21]; CCM8077, 48 h
  MIC: > 125 µM
[22]; 72 h
  MIC: > 125 µM
[22]; 120 h
  MIC: > 125 µM
other
  melting point: 188.1 to 188.9 °C
HepG2 cell line
  IC50: > 100 µM
HepG2 cell line; tested up to 500 µM (2, 3), 250 µM (12, 17), 100 µM (6, 7, 11) because of solubility
  toxicity to HepG2 up to highest tested concentration: non-toxic
